From patent publication US12398107B2, “Fungicidal nitroanilino substituted pyrazoles” (FMC Corporation, priority 2018, dated 2025)

Experiments:
Format in all cases: in vivo
Alternaria solani = experiment: Test F: tomato early blight, preventive spray on tomato seedlings; details: 100 = 100% disease control, 0 = no control; for pest or weed control at 50 ppm / Test F disease control rating (tomato early blight): 50 ppm
Summary of the method: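 Preventive test: one day after seedlings were sprayed to run-off with ppm-level suspensions (acetone/water 50/50, 250 ppm PEG400), A. solani spore inoculation followed. Incubation was 48 h at 27° C in saturated air plus 3 days at 20° C; disease control was scored visually versus controls (100 = full control).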

Phakopsora pachyrhizi = experiment: Test D: Asian soybean rust, preventive spray on soybean seedlings; details: 100 = 100% disease control, 0 = no control; for pest or weed control at 50 ppm / Test D disease control rating (Asian soybean rust): 50 ppm
Summary of the method: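 Soybean seedlings sprayed to run-off with compound suspension (ppm, in 50/50 acetone/water with 250 ppm PEG400), inoculated next day with P. pachyrhizi spores, held 24 h saturated at 22°C then 8 days at 22°C. Visual rating 0-100% disease control relative to controls.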

[1] = test system: Blumeria graminis f. sp. tritici; experiment: Test C: wheat powdery mildew, preventive spray on wheat seedlings; details: rated after 8 days, 100 = 100% disease control, 0 = no control; for pest or weed control at 50 ppm / Test C disease control rating (wheat powdery mildew): 50 ppm
Summary of the method: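 Wheat seedlings got a run-off spray of test suspension (ppm in acetone/water 50/50, 250 ppm PEG400, acetone 3% of volume), then spore-dust inoculation with wheat powdery mildew one day later. After 8 days' growth-chamber incubation at 20° C, disease control scored visually on a 0–100 scale versus untreated controls.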

Septoria tritici = experiment: Test A: wheat leaf blotch, preventive spray on wheat seedlings; details: 100 = 100% disease control, 0 = no control relative to controls; for pest or weed control at 50 ppm / Test A disease control rating (wheat leaf blotch): 50 ppm
Summary of the method: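 Preventive test: seedlings sprayed to run-off one day before Septoria tritici spore inoculation, with ppm doses in acetone/water containing 250 ppm PEG400. After 48 h at 24 °C in saturated air and 17 days at 20 °C, plants were scored 0–100 for disease control versus untreated controls.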

[2] = test system: Puccinia recondita f. sp. tritici; experiment: Test B: wheat leaf rust, preventive spray on wheat seedlings; details: 100 = 100% disease control, 0 = no control relative to controls; for pest or weed control at 50 ppm / Test B disease control rating (wheat leaf rust): 50 ppm
Summary of the method: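 Wheat seedlings got a run-off spray (ppm, acetone/water 50/50, 250 ppm PEG400) and one day later a spore inoculum. After 24 h at 20° C. in saturated air and 7 days at 20° C., disease was scored as % control relative to controls (100 = full control).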

Botrytis cinerea = experiment: Test E: tomato Botrytis, preventive spray on tomato seedlings; details: 100 = 100% disease control, 0 = no control; for pest or weed control at 50 ppm / Test E disease control rating (tomato Botrytis): 50 ppm
Summary of the method: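 Preventive test: spore inoculation one day after run-off spraying of compound suspension (3% acetone, acetone/water 50/50, 250 ppm PEG400). Incubation 20 °C saturated humidity for 48 h, followed by 3 days at 24 °C growth chamber; disease control scored visually, 100 = full control.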

[3] = Alternaria solani, read-out: Test F disease control rating (tomato early blight)
[4] = Phakopsora pachyrhizi, read-out: Test D disease control rating (Asian soybean rust)
[5] = Blumeria graminis, 192 h, read-out: Test C disease control rating (wheat powdery mildew)
[6] = Zymoseptoria tritici, read-out: Test A disease control rating (wheat leaf blotch)
[7] = read-out: Test B disease control rating (wheat leaf rust)
[8] = Botrytis cinerea, read-out: Test E disease control rating (tomato Botrytis)

Row | SMILES | pest or weed control at 10 ppm (Alternaria solani; Alternaria solani, 10 ppm, read-out: Test F disease control rating (tomato early blight)) | pest or weed control at 50 ppm (Alternaria solani; [3]) | pest or weed control at 10 ppm (Phakopsora pachyrhizi; Phakopsora pachyrhizi, 10 ppm, read-out: Test D disease control rating (Asian soybean rust)) | pest or weed control at 50 ppm (Phakopsora pachyrhizi; [4]) | pest or weed control at 10 ppm ([1]; Blumeria graminis, 192 h, 10 ppm, read-out: Test C disease control rating (wheat powdery mildew)) | pest or weed control at 50 ppm [1, 5] | pest or weed control at 10 ppm (Septoria tritici; Zymoseptoria tritici, 10 ppm, read-out: Test A disease control rating (wheat leaf blotch)) | pest or weed control at 50 ppm (Septoria tritici; [6]) | pest or weed control at 10 ppm ([2]; 10 ppm, read-out: Test B disease control rating (wheat leaf rust)) | pest or weed control at 50 ppm [2, 7] | pest or weed control at 10 ppm (Botrytis cinerea; Botrytis cinerea, 10 ppm, read-out: Test E disease control rating (tomato Botrytis)) | pest or weed control at 50 ppm (Botrytis cinerea; [8]) | Test F disease control rating (tomato early blight) (Alternaria solani) | Test D disease control rating (Asian soybean rust) (Phakopsora pachyrhizi) | Test C disease control rating (wheat powdery mildew) [1] | Test A disease control rating (wheat leaf blotch) (Septoria tritici) | Test B disease control rating (wheat leaf rust) [2] | Test E disease control rating (tomato Botrytis) (Botrytis cinerea)
1 | Cc1nn(C)c(Nc2c(F)cccc2[N+](=O)[O-])c1-c1ccc(F)cc1Cl [Compound 112, 4-(2-chloro-4-fluorophenyl)-N-(2-fluoro-6-nitrophenyl)-1,3-dimethyl-1H-pyrazol-5-amine] | 98% | 100% | 52% | 99% | 98% | 100% | 72% | 88% | 100% | 100% | 100% | 100% |  |  |  |  |  | 
2 | Cc1nn(C)c(Nc2c(Br)cccc2[N+](=O)[O-])c1-c1ccc(F)cc1Cl [Compound 110] |  |  |  |  |  |  |  |  |  |  |  |  | 0% | 73% | 56% | 100% | 98% | 99%
3 | Cc1nn(C)c(Nc2c(F)cccc2[N+](=O)[O-])c1-c1c(Cl)cccc1Cl [Compound 53] |  |  |  |  |  |  |  |  |  |  |  |  | 98% | 0% | 98% | 100% | 100% | 98%
4 | COc1ccc(-c2c(C)nn(C)c2Nc2ccccc2[N+](=O)[O-])c(Cl)c1 [Compound 140] |  |  |  |  |  |  |  |  |  |  |  |  | 93% | 0% | 31% | 99% | 86% | 100%
5 | CCc1nn(C)c(Nc2c(F)cccc2[N+](=O)[O-])c1-c1ccc(F)cc1F [Compound 46] |  |  |  |  |  |  |  |  |  |  |  |  | 81% | 0% | 99% | 100% | 98% | 99%
6 | CCOc1ccc(Nc2c(-c3ccc(F)cc3Cl)c(C)nn2C)c([N+](=O)[O-])c1 [Compound 103] |  |  |  |  |  |  |  |  |  |  |  |  | 0% | 0% | 50% | 97% | 80% | 83%
7 | Cc1nn(C)c(Nc2c(Cl)cccc2[N+](=O)[O-])c1-c1ccc(F)cc1Cl [Compound 108] |  |  |  |  |  |  |  |  |  |  |  |  | 77% | 86% | 97% | 100% | 100% | 100%
8 | Cc1nn(C)c(Nc2c(Cl)cc(Cl)cc2[N+](=O)[O-])c1-c1ccc(F)cc1F [Compound 101] |  |  |  |  |  |  |  |  |  |  |  |  | 0% | 44% | 89% | 100% | 99% | 99%
9 | Cc1nn(C)c(Nc2ccccc2[N+](=O)[O-])c1-c1c(F)cccc1F [Compound 135] |  |  |  |  |  |  |  |  |  |  |  |  | 0% | 0% | 93% | 100% | 68% | 99%
10 | Cc1nn(C)c(Nc2ccc(F)cc2[N+](=O)[O-])c1-c1ccc(F)cc1Br [Compound 20] |  |  |  |  |  |  |  |  |  |  |  |  | 26% | 0% | 92% | 100% | 89% | 99%
11 | Cc1nn(C)c(Nc2c(Cl)cc(F)cc2[N+](=O)[O-])c1-c1ccc(Cl)cc1Cl [Compound 10] |  |  |  |  |  |  |  |  |  |  |  |  | 9% | 0% | 48% | 100% | 99% | 68%
12 | Cc1nn(C)c(Nc2cccc(Cl)c2[N+](=O)[O-])c1-c1ccc(F)cc1Cl [Compound 34] |  |  |  |  |  |  |  |  |  |  |  |  | 0% | 0% | 13% | 100% | 54% | 71%
13 | Cc1cc(F)c(Nc2c(-c3ccc(F)cc3F)c(C)nn2C)c([N+](=O)[O-])c1 [Compound 178] |  |  |  |  |  |  |  |  |  |  |  |  | 100% | 97% | 99% | 100% | 100% | 100%
14 | Cc1nn(C)c(Nc2ccc(OC(F)(F)F)cc2[N+](=O)[O-])c1-c1ccc(F)cc1Cl [Compound 94] |  |  |  |  |  |  |  |  |  |  |  |  | 9% | 73% | 72% | 73% | 0% | 0%
15 | Cc1nn(C)c(Nc2cc(Cl)ccc2[N+](=O)[O-])c1-c1ccc(F)cc1Cl [Compound 130] |  |  |  |  |  |  |  |  |  |  |  |  | 0% | 0% | 20% | 85% | 86% | 85%
16 | Cc1nn(C)c(Nc2c(Cl)cc(F)cc2[N+](=O)[O-])c1-c1ccc(C#N)cc1Cl [Compound 18, 3-chloro-4-[5-[(2-chloro-4-fluoro-6-nitrophenyl)amino]-1,3-dimethyl-1H-pyrazol-4-yl]benzonitrile] |  | 99% |  | 92% |  | 89% |  | 100% |  | 100% |  | 100% |  |  |  |  |  | 
17 | Cc1cc(Cl)c(Nc2c(-c3ccc(Cl)cc3Cl)c(C)nn2C)c([N+](=O)[O-])c1 [Compound 145] |  |  |  |  |  |  |  |  |  |  |  |  | 24% | 0% | 52% | 98% | 92% | 85%
18 | COc1ccc(Nc2c(-c3ccc(F)cc3Cl)c(C)nn2C)c([N+](=O)[O-])c1 [Compound 119] |  |  |  |  |  |  |  |  |  |  |  |  | 99% | 92% | 99% | 100% | 100% | 100%
